This is an account of results in patent US12319655B2, “RAF kinase inhibitors and methods of use thereof” (Deciphera Pharmaceuticals, LLC, priority 2021, dated 2025).

Assay [1] deals with B-Raf (V600E) (SEQ. ID NO: 4) kinase (Homo sapiens (Human), UniProt P15056, V600E). In words: Biochemical Assay for B-Raf (V600E) (1). As to conditions: Table J, BRAF V600E, assay version (1); read-out: BRAF VE (1) IC50. The gist of the method:
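Coupled pyruvate kinase/lactate dehydrogenase assay: 0.03 nM B-Raf V600E, 30.1 nM MEK, 1 mM ATP, pH 7.5 Tris/MgCl2 buffer, 1% DMSO. NADH oxidation followed at 340 nm for 6 h at 30 °C; rate from 3–4 h converted to percent inhibition, IC50 by four-parameter fit.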

Assay [2] deals with B-Raf kinase (SEQ. ID NO: 2) (Homo sapiens (Human), UniProt P15056). In words: Biochemical Assay for B-Raf (1). As to conditions: Table J, assay version (1); read-out: BRAF (1) IC50. The gist of the method: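 Continuous PK/LDH-coupled NADH oxidation assay, A340 read for 6 h at 30° C., with 0.13 nM B-Raf, 30.1 nM MEK substrate and 1 mM ATP in Tris pH 7.5, MgCl2, DTT, detergents, 1% DMSO. Rate taken from 4–5 h window; percent inhibition vs no-compound and known-inhibitor controls; four-parameter fit gives IC50.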

In the next assay the test system is WM3928 cells. The experiment in a line: WM3928 Cell Proliferation Assay (1). It is filed as cell-based. The gist of the method: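 IC50 was derived from resazurin fluorescence (ex 540, em 600 nm) after a 6–7 h dye incubation. Before that, cells had 67–72 h of compound exposure at 37 °C, 5% CO2.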
A further assay deals with H2405 cells. In words: H2405 Cell Proliferation Assay (1). It is filed as cell-based. As to conditions: Homo sapiens, NCI-H2405. Put shortly:
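Viability was read by resazurin reduction (ex 540 nm, em 600 nm; 5-6 h with 40 μL of 440 μM stock) after 67-72 h compound exposure at 37 °C.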

Chain of B-Raf kinase (SEQ. ID NO: 2) (P15056 416-766): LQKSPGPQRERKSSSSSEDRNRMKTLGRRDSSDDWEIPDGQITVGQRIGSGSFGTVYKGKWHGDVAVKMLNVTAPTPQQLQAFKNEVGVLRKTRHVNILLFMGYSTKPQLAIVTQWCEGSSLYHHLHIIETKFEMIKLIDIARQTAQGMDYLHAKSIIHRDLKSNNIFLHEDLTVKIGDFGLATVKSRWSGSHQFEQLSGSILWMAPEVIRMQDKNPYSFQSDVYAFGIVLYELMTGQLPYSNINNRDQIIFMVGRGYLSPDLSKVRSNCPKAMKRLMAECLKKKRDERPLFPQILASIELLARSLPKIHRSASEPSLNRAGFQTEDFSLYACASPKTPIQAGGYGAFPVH
Chain of B-Raf (V600E) (SEQ. ID NO: 4) kinase (P15056 416-766 V600E): as the sequence (P15056 416-766) above, with V185E counted along it

`Cc1ccc(NC(=O)c2ccnc(C(F)(F)F)c2)cc1-c1ccnc(-c2ccnc(N)c2)c1` [Example 16, N-(3-(2′-amino-[2,4′-bipyridin]-4-yl)-4-methylphenyl)-2-(trifluoromethyl)isonicotinamide]: the 50% inhibitory concentration (IC50) in assay [1] was not above 100 nM; in assay [2], not above 100 nM; in the assay on WM3928 cells it was 1000 to 10000 nM; with H2405 cells, 1000 to 10000 nM.

As to `Cc1ccc(NC(=O)c2cc(CN(C)C)cc(C(F)(F)F)c2)cc1-c1cncc(-c2ccnc(NC(=O)C3CC3)c2)n1` [Example 185], the IC50 (in assay [1]; in assay [2]; with WM3928 cells; in the assay on H2405 cells) was not above 100 nM throughout.

As for `Cc1ccc(NC(=O)c2ccnc(C(C)(C)F)c2)cc1-c1ccnc(-c2ccnc(NC(=O)C3CC3)c2)n1` [Example 186], the IC50 (in assay [1]; in assay [2]; in the assay with WM3928 cells; in the assay on H2405 cells) was not above 100 nM in each case.

`Cc1ccc(NC(=O)c2ccnc(C3(C#N)CC3)c2)cc1-c1nccc(-c2ccnc(NC(=O)C3CC3)c2)n1` [Example 187]: the IC50 in assay [1] was not above 100 nM; in assay [2] it was not above 100 nM; with WM3928 cells, not above 100 nM; with H2405 cells, 100 to 500 nM.

Consider `Cc1ccc(NC(=O)c2ccnc(C(F)F)c2)cc1-c1ccnc(-c2ccnc(NC(=O)C3CC3)c2)n1` [Example 189], for which the IC50 in assay [1] is not above 100 nM; in assay [2], not above 100 nM; in the assay with WM3928 cells, not above 100 nM; in the assay on H2405 cells, 100 to 500 nM.

Take `CNC(=O)c1cc(-c2cccc(-c3cc(NC(=O)c4ccnc(C(C)(C)C#N)c4)ccc3C)c2)cnn1` [Example 191]: the IC50 in assay [1] is not above 100 nM; in assay [2], 100 to 500 nM; in the assay on WM3928 cells, not above 100 nM; in the assay with H2405 cells it was not above 100 nM.

For `CNC(=O)c1cc(-c2cccc(-c3cc(NC(=O)c4ccnc(C(C)(C)C#N)c4)cnc3C)c2)ccn1` [Example 192], the IC50 was not above 100 nM in assay [1], 100 to 500 nM in assay [2], not above 100 nM with WM3928 cells and 100 to 500 nM in the assay on H2405 cells.

In the case of `Cc1ncc(NC(=O)c2ccnc(C(C)(C)C#N)c2)cc1-c1ccnc(-c2ccnc(NC(=O)C3CC3)c2)n1` [Example 193], the IC50 (in assay [1]; in assay [2]; with WM3928 cells; in the assay on H2405 cells) was not above 100 nM throughout.

As for `CNC(=O)c1cc(-c2nc(-c3cc(NC(=O)c4ccnc(C(C)(C)C#N)c4)ccc3C)cc(C3CC3)n2)ccn1` [Example 196], the IC50 was not above 100 nM in assay [1], 100 to 500 nM in assay [2], 100 to 500 nM in the assay with WM3928 cells and 100 to 500 nM in the assay on H2405 cells.

Regarding `CNC(=O)c1cc(-c2ccnc(-c3cc(NC(=O)c4ccnc(C(C)(C)C#N)c4)cnc3C)n2)ccn1` [Example 199], the half-maximal inhibitory concentration (IC50) in assay [1] was not above 100 nM; in assay [2], 500 to 1000 nM; in the assay on WM3928 cells, 1000 to 10000 nM; in the assay with H2405 cells it was 100 to 500 nM.

Consider `CNC(=O)c1cc(-c2cccc(-c3cc(NC(=O)c4ccnc(C(C)(C)C#N)c4)cnc3C)c2)cnn1` [Example 201], for which the IC50 is not above 100 nM in assay [1], 500 to 1000 nM in assay [2], 100 to 500 nM with WM3928 cells and 100 to 500 nM in the assay with H2405 cells.

In the case of `Cc1ccc(NC(=O)c2cc(CN(C)C)cc(C(F)(F)F)c2)cc1-c1cccc(-c2cc(NC(=O)C3CC3)ncn2)c1` [Example 202], the IC50 was not above 100 nM in assay [1], not above 100 nM in assay [2], not above 100 nM in the assay on WM3928 cells and 100 to 500 nM in the assay on H2405 cells.

For `CNC(=O)c1cc(-c2cccc(-c3cc(NC(=O)c4ccnc(C(C)(C)C#N)c4)cnc3C)c2)ncn1` [Example 204], the IC50 in assay [1] is not above 100 nM; in assay [2] it was 100 to 500 nM; in the assay on WM3928 cells it was 100 to 500 nM; with H2405 cells it was 100 to 500 nM.

Regarding `CNC(=O)c1cc(-c2cc(-c3cc(NC(=O)c4ccnc(C(C)(C)F)c4)ccc3C)ccn2)ccn1` [Example 214], the IC50 in assay [1] was not above 100 nM; in assay [2], 100 to 500 nM; in the assay on WM3928 cells it was not above 100 nM; in the assay on H2405 cells, 100 to 500 nM.

For `Cc1ncc(NC(=O)c2ccnc(C(C)(C)C#N)c2)cc1-c1cc(-c2cc(NC(=O)C3CC3)ncn2)cc(C2CC2)c1` [Example 218], the half-inhibitory concentration (IC50) is not above 100 nM in assay [1], 100 to 500 nM in assay [2], not above 100 nM in the assay on WM3928 cells and 100 to 500 nM in the assay on H2405 cells.

Turning to `COCCNc1cc(-c2nccc(-c3cc(NC(=O)c4ccnc(C(C)(C)C#N)c4)ccc3C)n2)ccn1` [Example 221], the IC50 in assay [1] is not above 100 nM; in assay [2] it was not above 100 nM; in the assay on WM3928 cells it was 500 to 1000 nM; in the assay with H2405 cells, 1000 to 10000 nM.

Take `Cc1ncc(NC(=O)c2ccnc(C(C)(C)C#N)c2)cc1-c1cccc(-c2ccnc(NC(=O)C3CC3)c2)c1` [Example 222]: the IC50 in assay [1] is not above 100 nM; in assay [2], not above 100 nM; in the assay on WM3928 cells, not above 100 nM; in the assay on H2405 cells it was 100 to 500 nM.

`Cc1ccc(NC(=O)c2ccnc(C(C)(C)C#N)c2)cc1-c1cccc(-c2ccnc(NC(=O)C3CC3)c2)c1` [Example 223]: the IC50 (in assay [1]; in assay [2]; with WM3928 cells; with H2405 cells) was not above 100 nM in each case.

With `Cc1ccc(NC(=O)c2ccnc(C(C)(C)C#N)c2)cc1-c1cncc(-c2cc(NC(=O)C3CC3)ncn2)c1` [Example 224], the IC50 (in assay [1]; in assay [2]; in the assay on WM3928 cells; in the assay on H2405 cells) was not above 100 nM throughout.

As to `COC(=O)Nc1cc(-c2cccc(-c3cc(NC(=O)c4ccnc(C(C)(C)C#N)c4)cnc3C)c2)ncn1` [Example 225], the IC50 in assay [1] is not above 100 nM; in assay [2] it was not above 100 nM; in the assay with WM3928 cells, not above 100 nM; in the assay with H2405 cells, 500 to 1000 nM.

On to `Cc1ccc(NC(=O)c2ccnc(C3CC3)c2)cc1-c1ccnc(-c2ccnc(NC(=O)C3CC3)c2)n1` [Example 229], for which the 50% inhibitory concentration (IC50) (in assay [1]; in assay [2]; in the assay on WM3928 cells; with H2405 cells) was not above 100 nM in each case.

Take `Cc1ccc(NC(=O)c2ccnc(C(C)(C)C#N)c2)cc1-c1cnnc(-c2ccnc(NC(=O)C3CC3)c2)c1` [Example 230]: the IC50 (in assay [1]; in assay [2]; with WM3928 cells; with H2405 cells) was not above 100 nM in each case.

For `CNC(=O)c1cc(-c2cc(-c3cc(NC(=O)c4cccc(C(C)(C)C#N)c4)ccc3C)cc(OCCO)n2)ccn1` [Example 231], the IC50 (in assay [1]; in assay [2]; with WM3928 cells; in the assay with H2405 cells) was not above 100 nM in each case.

As for `CNC(=O)c1cc(-c2cncc(-c3cc(NC(=O)c4ccnc(C(C)(C)C#N)c4)ccc3C)c2)ncn1` [Example 235], the IC50 in assay [1] was not above 100 nM; in assay [2], 100 to 500 nM; in the assay on WM3928 cells, not above 100 nM; in the assay on H2405 cells it was 100 to 500 nM.

With `Cc1ccc(NC(=O)c2ccnc(C(C)(C)C#N)c2)cc1-c1ccnc(-c2ccnc(NC(=O)C3(C#N)CC3)c2)n1` [Example 241], the 50% inhibitory concentration (IC50) (in assay [1]; in assay [2]; in the assay on WM3928 cells; with H2405 cells) was not above 100 nM throughout.

Take `CNC(=O)c1cc(-c2ccnc(-c3cc(NC(=O)c4ccnc(C(C)(C)C#N)c4)c(F)cc3C)n2)ccn1` [Example 242]: the IC50 in assay [1] was not above 100 nM; in assay [2] it was 100 to 500 nM; in the assay with WM3928 cells it was 100 to 500 nM; with H2405 cells, 100 to 500 nM.

In the case of `Cc1ccc(NC(=O)c2ccnc(C(C)(C)C#N)c2)cc1-c1cc(-c2ccnc(NC(=O)C3CC3)c2)cnn1` [Example 245], the IC50 (in assay [1]; in assay [2]; with WM3928 cells; in the assay with H2405 cells) was not above 100 nM throughout.

On to `Cc1ncc(NC(=O)c2ccnc(C(C)(C)F)c2)cc1-c1cccc(-c2cc(NC(=O)C3CC3)ncn2)c1` [Example 249], for which the IC50 in assay [1] is not above 100 nM; in assay [2], not above 100 nM; in the assay on WM3928 cells it was not above 100 nM; in the assay with H2405 cells, 100 to 500 nM.

On to `CNC(=O)c1cc(-c2cc(-c3cc(NC(=O)c4ccnc(C(C)(C)C#N)c4)ccc3F)cc(C)n2)ccn1` [Example 259], for which the IC50 is not above 100 nM in assay [1], 100 to 500 nM in assay [2] and 100 to 500 nM in the assay on H2405 cells.

For `CCNC(=O)c1cc(-c2cc(-c3cc(NC(=O)c4ccnc(C(C)(C)C#N)c4)ccc3C)ccn2)ccn1` [Example 266], the IC50 in assay [1] was not above 100 nM; in assay [2], 100 to 500 nM; in the assay with H2405 cells, 100 to 500 nM.

As to `CNC(=O)c1cc(-c2ccnc(-c3cc(NC(=O)c4ccnc(C(C)(C)OC)c4)ccc3C)n2)ccn1` [Example 268], the results for the half-inhibitory concentration (IC50) (in assay [1]; in assay [2]; in the assay on H2405 cells) were not above 100 nM, 100 to 500 nM and 100 to 500 nM, respectively.

`Cc1ncc(NC(=O)c2ccnc(C(C)C)c2)cc1-c1cccc(-c2ccnc(NC(=O)C3CC3)c2)n1` [Example 269]: the IC50 (in assay [1]; in assay [2]; with H2405 cells) was not above 100 nM throughout.

Regarding `Cc1cc(F)c(NC(=O)c2ccnc(C(C)(C)F)c2)cc1-c1cncc(-c2ccnc(NC(=O)C3CC3)c2)n1` [Example 276], the IC50 (in assay [1]; in assay [2]; in the assay on H2405 cells) was not above 100 nM each time.

The IC50 is the midpoint of a concentration-inhibition curve.
